# Laboratory results: US20230365592A1 (Agios Pharmaceuticals, Inc., priority 2022, published 2023)
# Target: T1, human PAH with the R408W mutation (Homo sapiens, UniProt P00439, R408W)
# T1 construct: expressed in transfected cells
# T1 sequence (P00439 1-452 R408W): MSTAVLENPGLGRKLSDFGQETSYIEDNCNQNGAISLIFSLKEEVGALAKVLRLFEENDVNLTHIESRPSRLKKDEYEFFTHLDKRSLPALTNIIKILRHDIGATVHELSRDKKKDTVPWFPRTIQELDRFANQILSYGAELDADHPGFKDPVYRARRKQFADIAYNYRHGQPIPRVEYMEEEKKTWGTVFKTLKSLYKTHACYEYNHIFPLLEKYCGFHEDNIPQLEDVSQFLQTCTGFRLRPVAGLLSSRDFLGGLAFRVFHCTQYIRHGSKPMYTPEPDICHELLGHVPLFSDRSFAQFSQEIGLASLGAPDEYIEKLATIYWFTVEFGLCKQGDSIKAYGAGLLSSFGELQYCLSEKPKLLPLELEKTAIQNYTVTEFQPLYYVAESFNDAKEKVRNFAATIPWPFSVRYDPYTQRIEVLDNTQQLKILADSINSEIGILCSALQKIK
# Test: Cell Based Phenylalanine Flux Assay;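 further: after compound treatment, cells received sepiapterin plus isotope-labelled Phenylalanine for 4 hours, then labelled Tyrosine in the medium was quantified, 10-point 2-fold dilution series run in duplicate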
# Settings: A375 cells expressing R408W PAH; 24 hrs with compound, then 20 µM sepiapterin and 800 µM 13C9,15N-Phenylalanine for 4 hours; 13C-Tyrosine by LC-MS; average where tested multiple times; read-out: AC50
row,Structure (SMILES),AC50 [nM]
1,Cn1ncc(C(=O)N2CCc3[nH]cnc3C2c2cc3ccccn3n2)c1C(F)F (stereo not shown),1000 to 5000
2,"O=C(c1ocnc1C1CC1)N1CCc2[nH]cnc2[C@@H]1c1cc2cccc(C(F)(F)F)n2n1 (single isomer, unassigned)",> 5000
3,Cc1ccn2nc(C3c4nc[nH]c4CCN3C(=O)c3nnc(C(C)(C)O)o3)cc2c1 (stereo not shown),> 5000
4,O=C(C1CC1(F)F)N1CCc2[nH]cnc2C1c1cc2ccccn2n1 (stereo not shown),1000 to 5000
5,COCc1ccc2c(C(=O)N3CCc4[nH]cnc4C3c3cc4cccc(C)n4n3)cnn2c1 (stereo not shown),1000 to 5000
6,Cn1ccc(-c2nnc(C(=O)N3CCc4[nH]cnc4C3c3cc4cc(F)ccn4n3)o2)n1 (stereo not shown),> 5000
7,Cc1n[nH]cc1-c1nnc(C(=O)N2CCc3[nH]cnc3C2c2cc3c(F)cccn3n2)o1 (stereo not shown),1000 to 5000

# Same assay, conditions: A375 cells expressing human PAH R408W; 24 hrs compound incubation; 13C-Tyrosine by LC-MS; average where tested multiple times; read-out: AC50
row,Structure (SMILES),AC50 [nM]
1,"CC(C)(F)c1nnc(C(=O)N2CCc3[nH]cnc3[C@H]2c2cc3ccc(C(F)(F)F)cn3n2)o1 [Example 2420, (S)-(5-(2-fluoropropan-2-yl)-1,3,4-oxadiazol-2-yl)(4-(6-(trifluoromethyl)pyrazolo[1,5-a]pyridin-2-yl)-6,7-dihydro-1H-imidazo[4,5-c]pyridin-5(4H)-yl)methanone]",1000 to 5000
2,"Cn1nc(C2CC2)nc1C(=O)N1CCc2[nH]cnc2[C@H]1c1cc2cccc(C(F)(F)F)n2n1 [Example 2419, (S)-(3-cyclopropyl-1-methyl-1H-1,2,4-triazol-5-yl)(4-(7-(trifluoromethyl)pyrazolo[1,5-a]pyridin-2-yl)-6,7-dihydro-1H-imidazo[4,5-c]pyridin-5(4H)-yl)methanone]",1000 to 5000
3,"Cc1cccn2nc([C@@H]3c4nc[nH]c4CCN3C(=O)c3nnc(-c4ccn(C)n4)s3)cc12 [Example 1998, (S)-(5-(1-methyl-1H-pyrazol-3-yl)-1,3,4-thiadiazol-2-yl)(4-(4-methylpyrazolo[1,5-a]pyridin-2-yl)-1,4,6,7-tetrahydro-5H-imidazo[4,5-c]pyridin-5-yl)methanone]",< 500
4,"CC(C)(O)c1nnc(C(=O)N2CCc3[nH]cnc3[C@H]2c2cc3c(Cl)cccn3n2)o1 [Example 2378, (S)-(4-(4-chloropyrazolo[1,5-a]pyridin-2-yl)-6,7-dihydro-1H-imidazo[4,5-c]pyridin-5(4H)-yl)(5-(2-hydroxypropan-2-yl)-1,3,4-oxadiazol-2-yl)methanone]",1000 to 5000
5,"FC(F)c1cccn2nc([C@H]3c4nc[nH]c4CCN3c3ccccn3)cc12 [Example 1978, (R)-4-(4-(difluoromethyl)pyrazolo[1,5-a]pyridin-2-yl)-5-(pyridin-2-yl)-4,5,6,7-tetrahydro-1H-imidazo[4,5-c]pyridine]",> 5000
6,"Cc1nc([C@H](C)O)oc1C(=O)N1CCc2[nH]cnc2[C@H]1c1cc2cccc(C(F)(F)F)n2n1 [Example 2422, (2-((S)-1-hydroxyethyl)-4-methyloxazol-5-yl)((S)-4-(7-(trifluoromethyl)pyrazolo[1,5-a]pyridin-2-yl)-6,7-dihydro-1H-imidazo[4,5-c]pyridin-5(4H)-yl)methanone]",1000 to 5000
7,"FC(F)(F)c1nnc(N2CCc3[nH]cnc3[C@H]2c2cc3c(C4CC4)cccn3n2)o1 [Example 2057, (S)-2-(4-(4-cyclopropylpyrazolo[1,5-a]pyridin-2-yl)-1,4,6,7-tetrahydro-5H-imidazo[4,5-c]pyridin-5-yl)-5-(trifluoromethyl)-1,3,4-oxadiazole]",< 500

# Same assay, conditions: A375 cells expressing human R408W PAH; 24 hrs compound incubation; 13C-Tyrosine by LC-MS; average where tested multiple times; read-out: AC50
row,Structure (SMILES),AC50 [nM]
1,"O=C(c1nnc(-c2cnccn2)o1)N1CCc2[nH]cnc2[C@H]1c1cc2cccc(F)n2n1 [Example 1461, (S)-(4-(7-fluoropyrazolo[1,5-a]pyridin-2-yl)-6,7-dihydro-1H-imidazo[4,5-c]pyridin-5(4H)-yl)(5-(pyrazin-2-yl)-1,3,4-oxadiazol-2-yl)methanone]",500 to 1000
2,"Cn1nc(C(F)F)cc1C(=O)N1CCc2[nH]cnc2[C@@H]1c1cc2c(Cl)cccn2n1 [Example 1369, (R)-(4-(4-chloropyrazolo[1,5-a]pyridin-2-yl)-6,7-dihydro-1H-imidazo(4,5-c]pyridin-5(4H)-yl)(3-(difluoromethyl)-1-methyl-1H-pyrazol-5-yl)methanone]",1000 to 5000
3,"Cc1cccc(-c2nnc(C(=O)N3CCc4[nH]cnc4[C@@H]3c3cc4cccc(F)n4n3)o2)n1 [Example 1497, (R)-(4-(7-fluoropyrazolo[1,5-a]pyridin-2-yl)-6,7-dihydro-1H-imidazo[4,5-c]pyridin-5(4H)-yl)(5-(6-methylpyridin-2-yl)-1,3,4-oxadiazol-2-yl)methanone]",1000 to 5000
4,"O=C(c1nnc(-c2cccnc2)o1)N1CCc2[nH]cnc2[C@H]1c1cc2c(C(F)F)cccn2n1 [Example 1422, (S)-(4-(4-(difluoromethyl)pyrazolo[1,5-a]pyridin-2-yl)-6,7-dihydro-1H-imidazo[4,5-c]pyridin-5(4H)-yl)(5-(pyridin-3-yl)-1,3,4-oxadiazol-2-yl)methanone]",< 500
5,"CC(C)(F)c1nc(C(F)F)c(C(=O)N2CCc3[nH]cnc3[C@@H]2c2cc3c(F)cccn3n2)o1 [Example 1227, (R)-(4-(difluoromethyl)-2-(2-fluoropropan-2-yl)oxazol-5-yl)(4-(4-fluoropyrazolo[1,5-a]pyridin-2-yl)-6,7-dihydro-1H-imidazo[4,5-c]pyridin-5(4H)-yl)methanone]",500 to 1000
6,"Fc1cccn2nc([C@H]3c4nc[nH]c4CCN3c3nnc(-c4ccccn4)o3)cc12 [Example 1612, (R)-2-(4-(4-fluoropyrazolo[1,5-a]pyridin-2-yl)-6,7-dihydro-1H-imidazo[4,5-c]pyridin-5(4H)-yl)-5-(pyridin-2-yl)-1,3,4-oxadiazole]",> 5000
7,"Cc1cccn2nc([C@H]3c4nc[nH]c4CCN3c3ncccn3)cc12 [Example 1619, (R)-4-(4-methylpyrazolo[1,5-a]pyridin-2-yl)-5-(pyrimidin-2-yl)-4,5,6,7-tetrahydro-1H-imidazo[4,5-c]pyridine]",1000 to 5000
8,"O=C(c1cnn2ccccc12)N1CCc2[nH]cnc2[C@H]1c1cc2c(F)cccn2n1 [Example 1289, (S)-(4-(4-fluoropyrazolo[1,5-a]pyridin-2-yl)-6,7-dihydro-1H-imidazo[4,5-c]pyridin-5(4H)-yl)(pyrazolo[1,5-a]pyridin-3-yl)methanone]",< 500
9,"CC(C)(F)c1nnc(C(=O)N2CCc3[nH]cnc3[C@H]2c2cc3c(C(F)(F)F)cccn3n2)o1 [Example 950, (S)-(5-(2-fluoropropan-2-yl)-1,3,4-oxadiazol-2-yl)(4-(4-(trifluoromethyl)pyrazolo[1,5-a]pyridin-2-yl)-6,7-dihydro-1H-imidazo[4,5-c]pyridin-5(4H)-yl)methanone]",< 500
10,"Cn1cc(-c2nnc(C(=O)N3CCc4[nH]cnc4[C@H]3c3cc4c(OC(F)(F)F)cccn4n3)o2)cn1 [Example 1682, (S)-(5-(1-methyl-1H-pyrazol-4-yl)-1,3,4-oxadiazol-2-yl)(4-(4-(trifluoromethoxy)pyrazolo[1,5-a]pyridin-2-yl)-6,7-dihydro-1H-imidazo[4,5-c]pyridin-5(4H)-yl)methanone]",< 500
11,"CC(C)(O)c1nc(C(F)F)c(C(=O)N2CCc3[nH]cnc3[C@@H]2c2cc3ccc(F)cn3n2)o1 [Example 1071, (R)-(4-(difluoromethyl)-2-(2-hydroxypropan-2-yl)oxazol-5-yl)(4-(6-fluoropyrazolo[1,5-a]pyridin-2-yl)-6,7-dihydro-1H-imidazo[4,5-c]pyridin-5(4H)-yl)methanone]",> 5000
